Test results published in PubChem BioAssay (NCI).
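Cultured in 96-well plates, cells were exposed to test compound for 48 hours across five concentrations. TGI is the concentration that stops growth completely.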

Legend:
Assay in all cases: NCI-60 cell line screen, 48 h
A549 NSCLC = tested on: A549 NSCLC
HOP-62 NSCLC = tested on: HOP-62 NSCLC
IGROV1 ovarian = tested on: IGROV1 ovarian
M14 melanoma = tested on: M14 melanoma
MDA-MB-435 = tested on: MDA-MB-435
MDA-N = tested on: MDA-N
MOLT-4 leukemia = tested on: MOLT-4 leukemia
RXF 393 renal = tested on: RXF 393 renal
SF-268 CNS = tested on: SF-268 CNS
SNB-19 CNS = tested on: SNB-19 CNS
SW-620 colon = tested on: SW-620 colon
TK-10 renal = tested on: TK-10 renal

Measured: TGI

CC(=O)NNc1nc(C)c(C(/C=C/c2ccccc2O)=N/NC(=O)c2ccncc2)s1
> 100 µM: A549 NSCLC | HOP-62 NSCLC | IGROV1 ovarian | M14 melanoma | MDA-MB-435 | MDA-N | MOLT-4 leukemia | RXF 393 renal | SF-268 CNS | SNB-19 CNS | SW-620 colon | TK-10 renal

Clc1cccc(Cl)c1C1SCc2nc3cc4ccccc4cc3n21 (centres undefined)
> 100 µM: A549 NSCLC | HOP-62 NSCLC | IGROV1 ovarian | M14 melanoma | MDA-MB-435 | MDA-N | MOLT-4 leukemia | RXF 393 renal | SF-268 CNS | SNB-19 CNS | SW-620 colon | TK-10 renal
